From patent publication US8946273B2, “S-Triazolyl alpha-mercapto acetanilides as inhibitors of HIV reverse transcriptase” (priority 2011, dated 2015)
Read-outs that look alike come from different tables or passages of the source.

How the values were obtained:
[1] = test system: wild type HIV-1; test: microbe, parasite or virus in culture; assay type: cell-based, human immunodeficiency virus type 1 (HIV-1)
[2] = target: T1, wild-type HIV reverse transcriptase (Human immunodeficiency virus type 1 group M subtype B, UniProt P04585); test: Activity on wild type reverse transcriptase (Table 1 IC50 WT); assay type: biochemical
T1 construct: wild-type and four mutant HIV reverse transcriptases
Experimental: Using similar methods as described above, 2-[5-bromo-4-(4-cyclopropylnaphthalen-1-yl)-4H-[1,2,4]triazol-3-ylsulfanyl]-N-(2-methyl-4-sulfamoylphenyeacetamide and 2-[5-bromo-4-(4-ethylnaphthalen-1-yl)-4H-[1,2,4]triazol-3-ylsulfanyl]-N-(2-chloro-4-sulfamoylphenyl)-acetamide were synthesized, as were the N-4-carbamyl analog, 2-[5-bromo-4-(4-ethyl-naphthalen-1-yl)-4H-[1,2,4]triazol-3-ylsulfanyl]-N-(2-chloro-4-carbamoylphenyl)-acetamide and the N-4-carboxyl analog. Each of the compounds was tested against a panel of mutant HIV reverse transcriptases, including 20 of the 22 of the mutants that are found in about 2% or more of the patient samples that are resistant to the most widely used non-nucleoside HIV-RT inhibitor efavirenz ((4S)-6-chloro-4-(cyclopropylethynyl)-1,4-dihydro-4-(trifluoromethyl)-2H-3,1-benzoxazin-2-one). […] In most cases both criteria were met. […] […].
Compounds of the invention were tested against the wild-type and four mutant HIV reverse transcriptases. The results are listed in Table 1 as EC50 (nM) and IC50 (nM). In the Table, A represents <50 nM, B is between 50 and 100 nM, and C is >100 nM. ND is not determined.

[3] = target: mutant HIV reverse transcriptases (Human immunodeficiency virus type 1, UniProt P12497, Y768C, cells depend on it); assay type: cell-based
[4] = target: mutant HIV reverse transcriptases (Human immunodeficiency virus type 1, UniProt P12497, Y775L, cells depend on it); assay type: cell-based
[5] = Human immunodeficiency virus 1, Hela-JC53, read-out: EC50 WT
[6] = read-out: EC50 WT, wild-type (WT) HIV-1
[7] = read-out: IC50 WT RT, wild-type (WT) RT

Compound: Cc1ccc(-n2c(SCC(=O)Nc3ccc(C(=O)O)cc3Cl)nnc2C(F)F)c2c1CCCC2 [compound 2]
- EC50 [1, 5]: < 50 nM
- IC50 [2]: < 50 nM
- EC50 [3]: < 50 nM
- EC50 [4]: < 50 nM

Compound: CCc1ccc(-n2c(SCC(=O)Nc3ccc(C(=O)O)cc3C)nnc2C(F)F)c2ccccc12 [compound 3]
- EC50 [1, 5]: < 50 nM
- IC50 [2]: < 50 nM
- EC50 [3]: 50 to 100 nM
- EC50 [4]: > 100 nM

Compound: CCc1ccc(-n2c(SCC(=O)Nc3ccc(C(=O)O)cc3Cl)nnc2C(F)F)c2ccccc12 [compound 4]
- EC50 [1, 5]: < 50 nM
- IC50 [2]: < 50 nM
- EC50 [3]: < 50 nM
- EC50 [4]: < 50 nM

Compound: Cc1cc(C(=O)O)ccc1NC(=O)CSc1nnc(C(F)F)n1-c1ccc(C)c2c1CCCC2 [compound 5]
- EC50 [1, 5]: < 50 nM
- IC50 [2]: < 50 nM
- EC50 [3]: > 100 nM
- EC50 [4]: > 100 nM

Compound: CCc1ccc(-n2c(Br)nnc2SCC(=O)Nc2ccc(C(=O)O)cc2C)c2ccccc12 [compound 6]
- EC50 [1, 5]: < 50 nM
- IC50 [2]: < 50 nM
- EC50 [3]: < 50 nM
- EC50 [4]: > 100 nM

Compound: CCc1ccc(-n2c(Br)nnc2SCC(=O)Nc2ccc(C(=O)O)cc2Cl)c2ccccc12 [compound 8]
- EC50 [1, 5]: < 50 nM
- IC50 [2]: < 50 nM
- EC50 [3]: < 50 nM
- EC50 [4]: < 50 nM

Compound: CCc1ccc(-n2c(Br)nnc2SCC(=O)Nc2ccc(C(=O)O)cc2Cl)c2ccccc12 [compound 9]
- EC50 [1, 6]: < 50 nM
- EC50 [3]: < 50 nM

Compound: O=C(CSc1nnc(Br)n1-c1ccc(C2CC2)c2ccccc12)Nc1ccc(C(=O)O)cc1Cl [compound 10]
- EC50 [1, 5]: < 50 nM
- IC50 [2]: < 50 nM
- EC50 [3]: < 50 nM
- EC50 [4]: < 50 nM

Compound: O=C(CSc1nnc(Br)n1-c1ccc(C2CC2)c2ccccc12)Nc1ccc(C(=O)O)cc1Cl [compound 11]
- EC50 [1, 6]: < 50 nM
- IC50 [2, 7]: < 50 nM
- EC50 [3]: < 50 nM
- EC50 [4]: < 50 nM

Compound: O=C(CSc1nnc(Br)n1-c1ccc(C2CC2)c2ccccc12)Nc1ccc(C(=O)O)cc1Cl [compound 12]
- EC50 [1, 6]: < 50 nM
- IC50 [2, 7]: < 50 nM
- EC50 [3]: < 50 nM
- EC50 [4]: < 50 nM

Compound: COc1ccc2cccc(-n3c(Br)nnc3SCC(=O)Nc3ccc(C(=O)O)cc3Cl)c2c1 [compound 13]
- EC50 [1, 5]: < 50 nM
- IC50 [2]: < 50 nM
- EC50 [3]: < 50 nM
- EC50 [4]: < 50 nM

Compound: O=C(CSc1nnc(C(F)F)n1-c1ccc(C2CC2)c2ccccc12)Nc1ccc(C(=O)O)cc1Cl [compound 14]
- EC50 [1, 5]: < 50 nM
- IC50 [2]: < 50 nM
- EC50 [3]: < 50 nM
- EC50 [4]: < 50 nM

Compound: Cc1cc(C2CC2)c2ccccc2c1-n1c(Br)nnc1SCC(=O)Nc1ccc(S(=O)(=O)O)cc1Cl [compound 15]
- EC50 [1, 5]: < 50 nM
- IC50 [2]: < 50 nM
- EC50 [3]: 50 to 100 nM
- EC50 [4]: > 100 nM

Compound: CCc1ccc(-n2c(SCC(=O)Nc3ccc(C(=O)O)cc3Cl)nnc2C(F)(F)F)c2ccccc12 [compound 16]
- EC50 [1, 5]: < 50 nM
- IC50 [2]: < 50 nM
- EC50 [3]: 50 to 100 nM
- EC50 [4]: > 100 nM

Compound: CCc1ccc(-n2c(CF)nnc2SCC(=O)Nc2ccc(C(=O)O)cc2Cl)c2ccccc12 [compound 17]
- EC50 [1, 5]: < 50 nM
- IC50 [2]: < 50 nM
- EC50 [3]: < 50 nM
- EC50 [4]: > 100 nM

Compound: COc1ccc2c(C)ccc(-n3c(Br)nnc3SCC(=O)Nc3ccc(C(=O)O)cc3Cl)c2c1 [compound 18]
- EC50 [3]: < 50 nM
- EC50 [4]: < 50 nM

Compound: COc1ccc2c(C3CC3)ccc(-n3c(Br)nnc3SCC(=O)Nc3ccc(S(=O)(=O)O)cc3Cl)c2c1 [compound 19]
- EC50 [1, 6]: 50 to 100 nM
- IC50 [2, 7]: < 50 nM
- EC50 [3]: 50 to 100 nM
- EC50 [4]: > 100 nM

Compound: CCc1ccc(-n2c(Br)nnc2SCC(=O)Nc2ccc(S(=O)(=O)O)cc2Br)c2ccccc12 [compound 20]
- EC50 [1, 5]: > 100 nM
- IC50 [2]: < 50 nM
- EC50 [3]: > 100 nM
- EC50 [4]: > 100 nM

Compound: O=C(CSc1nnc(Br)n1-c1ccc(C2CC2)cc1Cl)Nc1ccc(S(=O)(=O)O)cc1Cl [compound 21]
- EC50 [1, 5]: 50 to 100 nM
- IC50 [2]: < 50 nM
- EC50 [3]: > 100 nM
- EC50 [4]: > 100 nM

Compound: CCc1ccc(-n2c(Br)nnc2SCC(=O)Nc2ccc(C(=O)O)cc2Br)c2ccccc12 [compound 22]
- EC50 [1, 5]: < 50 nM
- IC50 [2]: < 50 nM
- EC50 [3]: < 50 nM
- EC50 [4]: 50 to 100 nM

Compound: Cc1cc(C2CC2)c2ccccc2c1-n1c(Br)nnc1SCC(=O)Nc1ccc(C(=O)O)cc1Cl [compound 23]
- EC50 [1, 5]: < 50 nM
- IC50 [2]: < 50 nM
- EC50 [3]: < 50 nM
- EC50 [4]: < 50 nM

Compound: O=C(CSc1nnc(Br)n1-c1ccc(C2CC2)cc1OC(F)(F)F)Nc1ccc(S(=O)(=O)O)cc1Cl [compound 24]
- EC50 [1, 5]: > 100 nM
- IC50 [2]: < 50 nM
- EC50 [3]: > 100 nM
- EC50 [4]: > 100 nM

Compound: Cc1cc(C2CC2)cc(Cl)c1-n1c(Br)nnc1SCC(=O)Nc1ccc(C(=O)O)cc1Cl [compound 28]
- EC50 [3]: < 50 nM
- EC50 [4]: < 50 nM

Compound: COc1ccc2c(C3CC3)ccc(-n3c(Br)nnc3SCC(=O)Nc3ccc(C(=O)O)cc3Cl)c2c1 [compound 34]
- EC50 [1, 5]: < 50 nM
- EC50 [3]: < 50 nM
- EC50 [4]: < 50 nM

Compound: Cc1cc(C(=O)O)ccc1NC(=O)CSc1nnc(Br)n1-c1ccc(C2CC2)c2ccccc12 [compound 35]
- EC50 [1, 5]: < 50 nM
- IC50 [2]: < 50 nM

Compound: NS(=O)(=O)c1ccc(NC(=O)CSc2nnc(Br)n2-c2ccc(C3CC3)c3ccccc23)c(Cl)c1 [compound 39]
- EC50 [1, 6]: < 50 nM
- EC50 [3]: < 50 nM
- EC50 [4]: < 50 nM

Compound: NS(=O)(=O)c1ccc(NC(=O)CSc2nnc(Br)n2-c2ccc(C3CC3)c3ccccc23)c(Cl)c1 [compound 42]
- EC50 [1, 6]: < 50 nM
- EC50 [3]: < 50 nM
- EC50 [4]: < 50 nM

Compound: Cc1cc(C)c2ccccc2c1-n1c(CF)nnc1SCC(=O)Nc1ccc(S(N)(=O)=O)cc1Cl [compound 53]
- EC50 [1, 5]: < 50 nM
- EC50 [3]: < 50 nM
- EC50 [4]: < 50 nM

Compound: CC(Sc1nnc(Br)n1-c1ccc(C2CC2)c2ccccc12)C(=O)Nc1ccc(S(N)(=O)=O)cc1Cl (centres unmarked) [compound 76]
- EC50 [3]: 50 to 100 nM
- EC50 [4]: > 100 nM

Compound: NS(=O)(=O)c1ccc(NC(=O)CSc2nnc(Br)n2-c2ccc(C3CC3)c3ccccc23)c(Cl)c1 [compound 77]
- EC50 [1, 5]: < 50 nM
- EC50 [3]: 50 to 100 nM
- EC50 [4]: > 100 nM

Compound: NS(=O)(=O)c1ccc(NC(=O)CSc2nnc(Br)n2-c2ccc(C3CC3)cc2)c(Cl)c1 [compound 78]
- EC50 [3]: < 50 nM
- EC50 [4]: > 100 nM

Compound: CCc1ccc(-n2c(Br)nnc2SCC(=O)Nc2ccc(S(N)(=O)=O)cc2Cl)c2c1CCCC2 [compound 79]
- EC50 [1, 5]: < 50 nM
- EC50 [3]: < 50 nM
- EC50 [4]: < 50 nM

Compound: Cc1cc(S(N)(=O)=O)ccc1NC(=O)CSc1nnc(Br)n1-c1ccc(C)c2c1CCCC2 [compound 80]
- EC50 [1, 5]: < 50 nM
- EC50 [3]: < 50 nM
- EC50 [4]: < 50 nM

Compound: Cc1ccc2c(C)ccc(-n3c(Br)nnc3SCC(=O)Nc3ccc(S(N)(=O)=O)cc3Br)c2c1 [compound 81]
- EC50 [1, 5]: < 50 nM
- EC50 [3]: < 50 nM
- EC50 [4]: < 50 nM

Compound: Cc1cc(C)c2ccccc2c1-n1c(CF)nnc1SCC(=O)Nc1ccc(S(N)(=O)=O)cc1Cl [compound 82]
- EC50 [1, 6]: < 50 nM
- EC50 [3]: < 50 nM

Compound: CCCc1ccc(-n2c(Br)nnc2SCC(=O)Nc2ccc(S(N)(=O)=O)cc2Cl)c2ccccc12 [compound 85]
- EC50 [1, 5]: < 50 nM
- EC50 [3]: < 50 nM
- EC50 [4]: < 50 nM

Compound: CCCc1ccc(-n2c(Br)nnc2SCC(=O)Nc2ccc(S(N)(=O)=O)cc2C)c2ccccc12 [compound 86]
- EC50 [1, 5]: < 50 nM
- EC50 [3]: < 50 nM
- EC50 [4]: < 50 nM

Compound: CCc1ccc(-n2c(Br)nnc2SCC(=O)Nc2ccc(S(N)(=O)=O)cc2Cl)c2ccccc12 [compound 87]
- EC50 [1, 5]: < 50 nM
- EC50 [3]: < 50 nM
- EC50 [4]: < 50 nM

Compound: Cc1cc(C2CC2)ccc1-n1c(Br)nnc1SCC(=O)Nc1ccc(S(N)(=O)=O)cc1Cl [compound 88]
- EC50 [1, 5]: < 50 nM
- EC50 [3]: < 50 nM
- EC50 [4]: < 50 nM

Compound: NS(=O)(=O)c1ccc(NC(=O)CSc2nnc(Cl)n2-c2ccc(C3CC3)c3ccccc23)c(Cl)c1 [compound 89]
- EC50 [1, 5]: < 50 nM
- EC50 [3]: < 50 nM
- EC50 [4]: < 50 nM

Compound: NS(=O)(=O)c1ccc(NC(=O)CSc2nnc(Br)n2-c2ccc(C3CC3)cc2OC(F)(F)F)c(Cl)c1 [compound 90]
- EC50 [3]: < 50 nM
- EC50 [4]: 50 to 100 nM

Compound: NS(=O)(=O)c1ccc(NC(=O)CSc2nnc(Br)n2-c2c(Cl)cc(C3CCC3)c3ccccc23)c(Cl)c1 [compound 91]
- EC50 [1, 5]: < 50 nM
- EC50 [3]: < 50 nM
- EC50 [4]: < 50 nM

Compound: Cc1cc(C2CC2)cc(Cl)c1-n1c(Br)nnc1SCC(=O)Nc1ccc(S(N)(=O)=O)cc1Cl [compound 93]
- EC50 [3]: < 50 nM
- EC50 [4]: < 50 nM

Compound: Cc1cc(S(N)(=O)=O)ccc1NC(=O)CSc1nnc(Br)n1-c1ccc(C2CCC2)c2ccccc12 [compound 94]
- EC50 [3]: < 50 nM
- EC50 [4]: < 50 nM

Compound: NS(=O)(=O)c1ccc(NC(=O)CSc2nnc(Br)n2-c2ccc(C3CCC3)c3ccccc23)c(Cl)c1 [compound 95]
- EC50 [1, 5]: < 50 nM
- EC50 [3]: < 50 nM
- EC50 [4]: < 50 nM

Compound: N#Cc1cccc2c(-n3c(SCC(=O)Nc4ccc(S(N)(=O)=O)cc4Cl)nnc3C(F)F)cccc12 [compound 96]
- EC50 [3]: < 50 nM
- EC50 [4]: > 100 nM

Compound: Cc1ccc2ccccc2c1-n1c(Br)nnc1SC(C)C(=O)Nc1ccc(S(N)(=O)=O)cc1Cl (centres unmarked) [compound 141]
- EC50 [1, 5]: < 50 nM
- IC50 [2]: < 50 nM
